The values below come from patent US7358376B2, “Substituted Thiophene compounds” (AstraZeneca AB, priority 2000, dated 2008).

Regarding `NC(=O)Nc1cc(-c2ccccc2Cl)sc1C(N)=O` [Example 7, 3-[(Aminocarbonyl)amino]5-(2-chlorophenyl)-2-thiophenecarboxamide], the melting point (as a rule, the temperature, or range, at which the solid turns liquid) is greater than 300 °C.

With `COc1ccc(-c2cc(NC(N)=O)c(C(N)=O)s2)cc1` [Example 4, 3-[(Aminocarbonyl)amino]-5-(4-methoxyphenyl)-2-thiophenecarboxamide], the melting point was greater than 300 °C.

With `CN(C)CCOc1ccccc1-c1cc(NC(N)=O)c(C(N)=O)s1` [Example 9, 3-[(Aminocarbonyl)amino]-5-{2-[2-(dimethylamino)ethoxy]phenyl}-2-thiophenecarboxamide], the melting point was 180 °C.

`CN(C)CCOc1ccc(-c2cc(NC(N)=O)c(C(N)=O)s2)cc1` [Example 10, 3-[(Aminocarbonyl)amino]-5-{4-[2-(dimethylamino)ethoxy]phenyl}-2-thiophenecarboxamide] showed a melting point greater than 300 °C.
